In patent US20240051946A1, “TARGETED PROTEIN DEGRADATION OF PARP14 FOR USE IN THERAPY” (Ribon Therapeutics, Inc., priority 2022, published 2024):
Structures can show the parent of a compound that is named as a salt. Each block holds one compound with its values, some of them ahead of it.

Key:
[1] = target: T1, catalytic domain of human PARP14 (residues 1611 to 1801) with NanoLuc tag (Homo sapiens, UniProt Q460N5); test: NanoLuc assay for the degradation of PARP14; type: cell-based; conditions: Assay A; NanoLuc-PARP14 overexpressed in HEK-293T cells; 2 hours at 37 degrees; luminescence
T1 construct: expressed in transfected cells; host or cells: HEK-293T cells (ATCC), plasmid pRTX240 in pcDNA3.1(-)
T1 sequence (Q460N5 1611-1801): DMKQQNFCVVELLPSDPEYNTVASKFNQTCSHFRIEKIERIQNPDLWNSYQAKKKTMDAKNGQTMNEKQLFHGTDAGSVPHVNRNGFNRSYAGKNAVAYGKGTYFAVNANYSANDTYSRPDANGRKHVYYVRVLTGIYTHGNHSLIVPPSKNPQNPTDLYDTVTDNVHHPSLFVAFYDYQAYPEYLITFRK
Outline: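 HEK-293T cells transiently transfected 24 hrs with N-terminal NanoLuc-tagged human PARP14 catalytic domain (residues 1611-1801), then exposed to compound dose response for 2 hours at 37 degrees. NanoGlo luminescence expressed as % of 0.1% DMSO wells; DC50 from floating 4-parameter fit, reported as banded ranges.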

[2] = system: Alternaria asthma mouse model; test: Alternaria asthma mouse model: cell counts and cytokines in BALF; type: in vivo; conditions: for total cell counts in BALF: 30 and 100 mg/kg once daily for 7 days subcutaneous, vs vehicle P<0.05
Description: The effect of Compound 17 was studied in an Alternaria asthma mouse model. On days 1-5, male Balb/c mice under isoflurane anesthesia were challenged by instilling solution of 5 μg (protein weight) Alternaria in 40 μL of PBS into each nostril. Compound 17 was administered two days prior to Alternaria challenge (defined day as day −1) and animals were treated with vehicle (10% DMSO/45% PEG-400/45% ‘20% HP-3-CD’ in water) or Compound 17 (30 and 100 mg/kg) once daily for 7 days (defined as day −1 to day 5) by subcutaneous injection. Total and differential cell counts of the BALF fluid samples were measured using a XT-2000iV analyzer (Sysmex). Cytokine concentrations of BALF supernatant were measured in samples from all groups using ELISA kit (Biotechne, UK). Statistical significance is calculated using one-way ANOVA followed by Dunnett's post-tests in which the treatment groups were compared to vehicle control (P<0.05).

PARP14 = target: T2, PARP14 (Homo sapiens, UniProt Q460N5); test: HiBiT assay for the degradation of PARP14 (HiBiT tagged PARP14 in LgBiT expressing Jurkat cells); type: cell-based; conditions: Assay B, 37° C. for 2 or 24 hours, luminescence, read-out: DC50
T2 construct: engineered to contain a HiBiT tag on both alleles of the PARP14 gene; endogenous in cells; host or cells: Jurkat cells stably expressing LgBiT (Promega), with CRISPR/Cas9 knock-in of HiBiT at the PARP14 locus
Description: Jurkat cells stably transfected with LgBiT (Promega) were engineered to contain a HiBiT tag on both alleles of the PARP14 gene (Genbank Accession Number: NM_017554) via CRISPR/Cas9 editing. The HiBiT tag is an 11 amino acid tag created by Promega that associates with LgBiT protein to form the NanoLuc® tag on the C-terminus of PARP14. Clones were isolated and confirmed for the HiBiT tag via Sanger sequencing.
Degradation of PARP14 protein was assessed by measuring the luminescence of the HiBiT tag associating with the LgBiT protein as a proxy for the PARP14 protein. Jurkat cells were diluted to 250,000 cells per mL and then added to assay plate (Corning 3574) using a Multidrop (Thermo Fisher) to add 20 μL per well of the 384 well plate, resulting in 5,000 cells per well. 20 nL of a dose response curve diluted in DMSO of each test compound was added to the cell plate using a Mosquito (TTP Labtech) and the plate was incubated at 37° C. for 2 or 24 hours. Assay plate was brought to room temperature then 5 μL per well of Live Cell Substrate (Promega) was added to the plate. Luminescence was measured on an Envision (Perkin Elmer).
The average DMSO was calculated from 32 wells containing 0.1% DMSO only in columns 12 and 24 of the assay plate. The % of DMSO values were calculated as described below: […]
The % of DMSO values were plotted as a function of compound concentration and the following 4-parameter fit was applied to derive the DC50 values:
where top, bottom, and Hill Coefficient are allowed to float. Y is the % of DMSO and X is the compound concentration.
DC50 data for the Example compounds is provided below in Table 2 (“+” is <0.03 μM; “++” is ≥0.03 μM).

[3] = male Balb/c mice, Alternaria challenge, 30 and 100 mg/kg once daily 7 days s.c., dose-dependent starting from 30 mg/kg

T2 sequence (Q460N5 whole entry): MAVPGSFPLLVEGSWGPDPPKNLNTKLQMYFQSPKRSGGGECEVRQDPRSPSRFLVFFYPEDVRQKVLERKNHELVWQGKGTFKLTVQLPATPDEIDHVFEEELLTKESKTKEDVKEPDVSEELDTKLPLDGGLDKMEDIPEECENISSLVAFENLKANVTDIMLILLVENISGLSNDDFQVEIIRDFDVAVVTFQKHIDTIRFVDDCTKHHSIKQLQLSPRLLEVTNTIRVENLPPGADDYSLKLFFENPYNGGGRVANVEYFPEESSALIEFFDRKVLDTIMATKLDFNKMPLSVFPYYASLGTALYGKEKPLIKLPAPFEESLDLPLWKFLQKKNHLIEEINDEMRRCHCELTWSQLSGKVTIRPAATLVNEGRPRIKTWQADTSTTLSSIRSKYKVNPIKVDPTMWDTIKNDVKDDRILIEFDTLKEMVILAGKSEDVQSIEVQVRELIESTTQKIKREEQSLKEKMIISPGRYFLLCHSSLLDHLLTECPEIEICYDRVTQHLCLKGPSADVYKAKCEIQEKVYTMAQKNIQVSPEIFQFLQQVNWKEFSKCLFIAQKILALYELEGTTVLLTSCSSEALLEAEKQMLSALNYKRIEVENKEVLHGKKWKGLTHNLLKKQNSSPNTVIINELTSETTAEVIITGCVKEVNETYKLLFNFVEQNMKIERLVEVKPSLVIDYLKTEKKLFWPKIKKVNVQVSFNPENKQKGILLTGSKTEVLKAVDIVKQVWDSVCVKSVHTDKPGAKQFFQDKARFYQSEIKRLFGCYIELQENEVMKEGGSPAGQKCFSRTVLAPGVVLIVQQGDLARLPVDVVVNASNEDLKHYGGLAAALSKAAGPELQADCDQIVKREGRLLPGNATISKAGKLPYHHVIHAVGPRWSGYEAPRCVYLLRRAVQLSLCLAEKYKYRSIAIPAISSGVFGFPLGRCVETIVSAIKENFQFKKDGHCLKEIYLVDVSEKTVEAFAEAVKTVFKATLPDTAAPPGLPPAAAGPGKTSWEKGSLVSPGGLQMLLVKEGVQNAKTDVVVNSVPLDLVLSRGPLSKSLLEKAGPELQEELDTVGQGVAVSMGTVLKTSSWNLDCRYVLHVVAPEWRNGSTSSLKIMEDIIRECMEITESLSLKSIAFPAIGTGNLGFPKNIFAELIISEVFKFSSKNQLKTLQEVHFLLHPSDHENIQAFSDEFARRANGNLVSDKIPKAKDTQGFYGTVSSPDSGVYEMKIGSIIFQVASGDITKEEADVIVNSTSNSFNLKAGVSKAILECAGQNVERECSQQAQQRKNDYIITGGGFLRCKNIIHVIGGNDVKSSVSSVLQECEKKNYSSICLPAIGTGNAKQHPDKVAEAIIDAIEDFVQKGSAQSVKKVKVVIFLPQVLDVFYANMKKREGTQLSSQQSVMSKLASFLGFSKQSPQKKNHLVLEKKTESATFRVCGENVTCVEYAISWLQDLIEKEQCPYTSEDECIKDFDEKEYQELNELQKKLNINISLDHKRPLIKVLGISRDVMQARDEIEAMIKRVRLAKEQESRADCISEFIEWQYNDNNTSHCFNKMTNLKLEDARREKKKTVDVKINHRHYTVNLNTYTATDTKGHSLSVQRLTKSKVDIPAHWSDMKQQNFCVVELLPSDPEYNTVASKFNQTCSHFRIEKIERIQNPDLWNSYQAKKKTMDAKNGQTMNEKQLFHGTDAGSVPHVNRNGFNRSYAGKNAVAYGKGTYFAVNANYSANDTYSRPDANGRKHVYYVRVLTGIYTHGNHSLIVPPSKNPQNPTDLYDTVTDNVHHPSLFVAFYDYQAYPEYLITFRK

DC50 [1]: < 100 nM
SMILES: O=C1CCC(Nc2ccc(C3CCN(CC4CCN(C(=O)CN5CCC(SCc6nc7cc(OCC8CCOCC8)cc(F)c7c(=O)[nH]6)CC5)CC4)CC3)cc2)C(=O)N1 (centres unmarked) [Example 17, 3-((4-(1-((1-(2-(4-(((5-fluoro-4-oxo-7-((tetrahydro-2H-pyran-4-yl)methoxy)-3,4-dihydroquinazolin-2-yl)methyl)thio)piperidin-1-yl)acetyl)piperidin-4-yl)methyl)piperidin-4-yl)phenyl)amino)piperidine-2,6-dione]
eosinophil in BALF ([2]; FIG. 2A legend, dose-dependent starting from 100 mg/kg): significantly reduces | cytokine IL-33 in BALF ([2]; FIG. 2B legend, dose-dependent starting from 100 mg/kg): significantly reduces | cytokine IL-4 in BALF ([2]; FIG. 2C legend, dose-dependent starting from 100 mg/kg): significantly reduces | cytokine IL-5 in BALF ([2]; FIG. 2D legend, dose-dependent starting from 100 mg/kg): significantly reduces | cytokine IL-4 in BALF [2, 3]: significantly reduces | cytokine IL-5 in BALF [2, 3]: significantly reduces | cytokine IL-33 in BALF [2, 3]: significantly reduces | eosinophils in BALF [2, 3]: significantly reduces | total cell counts in BALF ([2]; male Balb/c mice, Alternaria challenge, dose-dependent starting from 30 mg/kg): dose-dependent reduction | total cell counts in BALF ([2]; male Balb/c mice, Alternaria challenge, dose-dependent starting from 30 mg/kg, listed as Compound 17): significantly reduces

DC50 (PARP14): < 30 nM
SMILES: O=C1CCC(Nc2ccc(N3CCC(N4CCC(SCc5nc6cc(OCC7CC7)cc(F)c6c(=O)[nH]5)CC4)C3)c(F)c2)C(=O)N1 (centres unmarked) [Example 59, 3-((4-(3-(4-(((7-(cyclopropylmethoxy)-5-fluoro-4-oxo-3,4-dihydroquinazolin-2-yl)methyl)thio)piperidin-1-yl)pyrrolidin-1-yl)-3-fluorophenyl)amino)piperidine-2,6-dione]

DC50 (PARP14): < 30 nM
SMILES: O=C1CCN(c2ccc(N3CCC(N4CCC(SCc5nc6cc(OCC7CC7)cc(F)c6c(=O)[nH]5)CC4)CC3)c(F)c2)C(=O)N1 [Example 60, 1-(4-(4-(((7-(cyclopropylmethoxy)-5-fluoro-4-oxo-3,4-dihydroquinazolin-2-yl)methyl)thio)-[1,4′-bipiperidin]-1′-yl)-3-fluorophenyl)dihydropyrimidine-2,4(1H,3H)-dione]

DC50 (PARP14): < 30 nM
SMILES: Cn1nc(N2CCC(=O)NC2=O)c2ccc(N3CCC(N4CCC(SCc5nc6cc(OCC7CC7)cc(F)c6c(=O)[nH]5)CC4)CC3)cc21 [Example 61, 1-(6-(4-(((7-(cyclopropylmethoxy)-5-fluoro-4-oxo-3,4-dihydroquinazolin-2-yl)methyl)thio)-[1,4′-bipiperidin]-1′-yl)-1-methyl-1H-indazol-3-yl)dihydropyrimidine-2,4(1H,3H)-dione]

DC50 (PARP14): < 30 nM
SMILES: O=C1CCN(c2cncc3c(N4CCC(N5CCC(SCc6nc7cc(OCC8CC8)cc(F)c7c(=O)[nH]6)CC5)CC4)cccc23)C(=O)N1 [Example 62, 1-(8-(4-(((7-(cyclopropylmethoxy)-5-fluoro-4-oxo-3,4-dihydroquinazolin-2-yl)methyl)thio)-[1,4′-bipiperidin]-1′-yl)isoquinolin-4-yl)dihydropyrimidine-2,4(1H,3H)-dione]

DC50 (PARP14): < 30 nM
SMILES: O=C1CCC(Nc2ccc(N3CCC(N4CCN(CCc5nc6cc(OCC7CC7)cc(F)c6c(=O)[nH]5)CC4)CC3)c(F)c2)C(=O)N1 (centres unmarked) [Example 63, 3-((4-(4-(4-(2-(7-(cyclopropylmethoxy)-5-fluoro-4-oxo-3,4-dihydroquinazolin-2-yl)ethyl)piperazin-1-yl)piperidin-1-yl)-3-fluorophenyl)amino)piperidine-2,6-dione formic salt]

DC50 (PARP14): < 30 nM
SMILES: O=C1CCC(Nc2ccc(N3CCC(C4CCN(CCc5nc6cc(OCC7CC7)cc(F)c6c(=O)[nH]5)CC4)CC3)c(F)c2)C(=O)N1 (centres unmarked) [Example 64, 3-((4-(1′-(2-(7-(cyclopropylmethoxy)-5-fluoro-4-oxo-3,4-dihydroquinazolin-2-yl)ethyl)-[4,4′-bipiperidin]-1-yl)-3-fluorophenyl)amino)piperidine-2,6-dione]

DC50 (PARP14): < 30 nM
SMILES: O=C1CCC(Nc2ccc(N3CCC(N4CCC(CCc5nc6cc(OCC7CC7)cc(F)c6c(=O)[nH]5)CC4)CC3)c(F)c2)C(=O)N1 (centres unmarked) [Example 65, 3-((4-(4-(2-(7-(cyclopropylmethoxy)-5-fluoro-4-oxo-3,4-dihydroquinazolin-2-yl)ethyl)-[1,4′-bipiperidin]-1′-yl)-3-fluorophenyl)amino)piperidine-2,6-dione]

DC50 (PARP14): < 30 nM
SMILES: O=C1CCC(Nc2ccc(N3CC(N4CCC(SCc5nc6cc(OCC7CC7)cc(F)c6c(=O)[nH]5)CC4)C3)c(F)c2)C(=O)N1 (centres unmarked) [Example 66, 3-((4-(3-(4-(((7-(cyclopropylmethoxy)-5-fluoro-4-oxo-3,4-dihydroquinazolin-2-yl)methyl)thio)piperidin-1-yl)azetidin-1-yl)-3-fluorophenyl)amino)piperidine-2,6-dione]

DC50 (PARP14): < 30 nM
SMILES: O=C1CCC(Nc2ccc(N3CCC(N4CCC(SCc5nc6cc(C#CC7CC7)cc(F)c6c(=O)[nH]5)CC4)CC3)c(F)c2)C(=O)N1 (centres unmarked) [Example 67, 3-((4-(4-(((7-(cyclopropylethynyl)-5-fluoro-4-oxo-3,4-dihydroquinazolin-2-yl)methyl)thio)-[1,4′-bipiperidin]-1′-yl)-3-fluorophenyl)amino)piperidine-2,6-dione formate]
